In PMC7579906, “Discovery of a dual inhibitor of NQO1 and GSTP1 for treating glioblastoma” (Journal of Hematology & Oncology, 2020):

Tests used:
U87MG/EGFRvIII cells [1] = assay: Transwell migration assay; assay type: cell-based, human; settings: 0-1 μM
Experimental: A total of 1 × 10^4 cells were seeded onto the upper part of a transwell chamber (BD Bioscience, USA) containing a membrane filter for migration assays. Serum-free medium was added to the upper well, and medium containing 10% FBS was added to the lower well. After different treatments and incubation at 37 °C with 5% CO2, the filters were stained with crystal violet. Five random fields were counted per chamber by using a microscope.

NQO1 = target: T1, NQO1 (Homo sapiens, UniProt P15559); assay: NQO1 activity assay (DCPIP reduction); assay type: biochemical; settings: purified recombinant protein, Fig. 3b; read-out: IC50, inhibition of NQO1 activity
T1 construct: hexahistidine tag followed by a thrombin site (N); made in house; host or cells: Escherichia coli BL21 (DE3)
Experimental: NQO1 activity was measured essentially as described previously. Assays were performed in 25 mM Tris–HCl, pH 7.4, 0.7 mg/mL BSA, 250 mM sucrose, 0.2 mM NADPH and 40 μM dichlorophenolindophenol (DCPIP) in the presence of NQO1 protein with 10, 5, 2.5, 1.25, 0.625, 0.3125, 0.15625 and 0 μM of MNPC. It is analyzed for the reduction of DCPIP measured at 600 nm.

U87MG/EGFRvIII cells [2] = assay: ROS measurement (DCFH-DA); assay type: cell-based, human; settings: dose-dependent, 0-5 μM
Experimental: The DCFH-DA method was employed to detect the levels of intracellular reactive oxygen species (ROS). After various treatments, the cells were collected and then incubated with 5 μM DCFH-DA (ROS dye, #C6827, Invitrogen, USA) for 1 h at 37 °C. The fluorescence intensity was measured by the microplate reader (BioTek Instruments Inc., USA) with settings at excitation and emission equal to 485/535 nm.

GSTP1 Y108A = target: T2, GSTP1 Y108A (Homo sapiens, UniProt P09211, I105V/Y109A); assay: GSTP1 kinetic assay, Y108A mutant; assay type: biochemical; settings: mean ± SEM (n=3)
T2 construct: hexahistidine tag followed by a thrombin site (N); made in house; host or cells: Escherichia coli BL21 (DE3)
Experimental: The enzymatic activity of GSTP1 and its mutations was measured through the increased absorbance at 340 nm, which derived from the conjugation of reduced glutathione (GSH) and 1-chloro-2,4-dinitrobenzene (CDNB). The conjugation was initiated by adding CDNB to the mixture of GSH and GSTP1 or its mutants, and OD was immediately and continually measured for 20 min at 25 °C. The final assay mixture included 1 mM CDNB, 1 mM GSH in the buffer of 100 mM potassium phosphate pH 6.5, 1 mM EDTA. The inhibitory potency of MNPC versus GSTP1 or mutants was determined by calculating the residual activity after incubated with MNPC for 30 min at room temperature. Parallel control was run to monitor spontaneous conjugation of GSH and CDNB in the absence of the enzyme, and absorbance change of the control was used for the correction of an enzymatic reaction. The inhibition rate in triplicate was calculated by GraphPad Prism software (GraphPad, San Diego, CA) to give IC50 using nonlinear regression analysis.

[3] = target: T3, AEP (asparagine endopeptidase) (Homo sapiens, UniProt Q99538); assay: AEP activity assay in cell lysates; assay type: cell-based; settings: U87MG/EGFRvIII lysates, 0-5 μM
T3 construct: endogenous in cells; host or cells: U87MG/EGFRvIII cells (lysate)
T3 sequence (Q99538 18-433): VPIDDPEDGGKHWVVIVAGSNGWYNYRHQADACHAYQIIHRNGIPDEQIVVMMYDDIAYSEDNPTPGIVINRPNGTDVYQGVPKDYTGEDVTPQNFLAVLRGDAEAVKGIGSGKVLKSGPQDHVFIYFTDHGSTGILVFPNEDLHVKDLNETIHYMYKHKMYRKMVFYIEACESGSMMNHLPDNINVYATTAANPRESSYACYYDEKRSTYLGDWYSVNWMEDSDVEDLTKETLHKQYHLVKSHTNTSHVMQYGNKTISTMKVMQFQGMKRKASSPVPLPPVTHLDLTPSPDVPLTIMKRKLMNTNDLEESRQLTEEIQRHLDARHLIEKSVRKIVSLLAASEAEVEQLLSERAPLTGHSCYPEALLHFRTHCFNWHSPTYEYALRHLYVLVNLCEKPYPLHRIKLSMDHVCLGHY
Experimental: After different treatments, cell lysates were incubated in 200 μl assay buffer (20 mM citric acid, 60 mM Na2HPO4, 1 mM EDTA, 0.1% CHAPS and 1 mM DTT, pH 6.0) containing 20 μM AEP substrate Z-Ala-Ala-Asn-AMC (Bachem, USA). AMC released by substrate cleavage was quantified by measuring every 10 min at 460 nm in a fluorescence plate reader at 37 °C in kinetic mode for the total time of 1 h.

T1 sequence (P15559 whole entry): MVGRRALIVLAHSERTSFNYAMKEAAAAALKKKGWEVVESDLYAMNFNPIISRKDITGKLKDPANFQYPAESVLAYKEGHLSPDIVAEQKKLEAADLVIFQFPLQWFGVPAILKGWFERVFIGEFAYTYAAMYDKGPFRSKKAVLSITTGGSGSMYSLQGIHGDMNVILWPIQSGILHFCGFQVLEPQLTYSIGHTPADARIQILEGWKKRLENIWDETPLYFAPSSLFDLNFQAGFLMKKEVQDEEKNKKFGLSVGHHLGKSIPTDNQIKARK
T2 sequence (P09211 whole entry I105V/Y109A): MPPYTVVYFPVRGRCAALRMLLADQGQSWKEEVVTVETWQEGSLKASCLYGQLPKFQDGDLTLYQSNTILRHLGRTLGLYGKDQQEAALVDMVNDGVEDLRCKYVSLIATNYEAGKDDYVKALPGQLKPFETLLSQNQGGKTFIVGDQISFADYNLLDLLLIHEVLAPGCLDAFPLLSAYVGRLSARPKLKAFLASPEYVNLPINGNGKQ

In the case of `Cc1onc(-c2ccccc2)c1C(=O)Nc1ncc([N+](=O)[O-])s1` [MNPC, 5-methyl-N-(5-nitro-thiazol-2-yl)-3-phenylisoxazole-4-carboxamide], the Effect on migration (U87MG/EGFRvIII cells [1]) is reported as “no effect”, the IC50 (NQO1) is reported as 0.926 µM and the ROS levels (U87MG/EGFRvIII cells [2]) is reported as “elevated”. The IC50 (GSTP1 Y108A) was 25.7 ± 1.41 µM and the “Inhibition of AEP” value [3] was “nor inhibited”.
